Assay results: patent US20190328016A1, “SALT COMPOSITION INCLUDING SARCOSINE” (NESTEC S.A., priority 2016, published 2019)

Tested on: trained panellists
Assay: Sensory evaluation of tablets by 11 trained panellists
Format: in vivo
Description: Bars coloured black denote a significant difference in a particular taste/sensory characteristic. Unshaded bars denote that there is no significant difference in the characteristic. A positive number represents an increased sensory response of the co-crystal compared to the physical mixture.
Tablets for sensory evaluation were prepared using a Romaco Kilian Styl'One single-stroke tablet press. […] The tablets were prepared with three compressions of 300 ms and an interval of 200 ms.
Each of the panellists received a tray with two tablets presented on plastic plates coded with random 3-digit numbers. The tablets had to be crunched with the front teeth and kept in mouth to dissolve slowly (method 1). Alternatively, tablets could be crunched with the front teeth and chewed constantly in the mouth until complete dissolution occurred (method 2).
Afterwards the panellists were asked to rate the taste of the tablets in respect of the following 12 categories: upfront saltiness (1), overall saltiness (2), sweetness (3), sourness (4), umami (5), friable (6), melting (7), overall persistence (8), saltiness persistence (9), sweetness persistence (10), sourness persistence (11), and tingling (12).

## N[C@@H](CO)C(=O)O.N[C@@H](CO)C(=O)O.[Cl-].[Na+] [(L-serine)2.sodium chloride co-crystals, (L-serine)2.sodium chloride]
25 mg sodium chloride per tablet, during and after consumption
  perceived salty taste versus corresponding physical mix: significantly more salty
11 trained panellists, FIG. 2
  overall saltiness versus physical mix: superior
  saltiness persistence versus physical mix: superior
  upfront saltiness versus physical mix: superior
